Assay results from PMC12203525, “The insight into the biology of five homologous lectins produced by the entomopathogenic bacterium and nematode symbiont Photorhabdus laumondii” (Glycobiology, 2025).
Read-outs that look alike come from different tables or passages of the source.

What was measured:
PLL3 [1] = tested on: PLL3; parameters: method as in Faltinek et al. 2019; Fujdiarová et al. 2021; settings: inhibition of PLL3 binding to immobilized MGMR, ref Faltinek et al. 2019, Fujdiarová et al. 2021, cited from earlier work
PLL3 [2] = target: PLL3; parameters: method as in Fujdiarová et al, 2021, Faltinek et al, 2019; settings: ref Fujdiarová et al, 2021, Faltinek et al, 2019, cited from earlier work; for Kd: ITC; for interaction with the sugar in ITC (in words): PLL3
PLL2 [3] = tested on: PLL2; parameters: method as in Faltinek et al. 2019; Fujdiarová et al. 2021; settings: inhibition of PLL2 binding to immobilized MGMR, ref Faltinek et al. 2019, Fujdiarová et al. 2021, cited from earlier work
PLL2 [4] = target: PLL2; parameters: method as in Fujdiarová et al, 2021, Faltinek et al, 2019; settings: ref Fujdiarová et al, 2021, Faltinek et al, 2019, cited from earlier work; for Kd: ITC; for interaction with the sugar in ITC (in words): PLL2
PLL [5] = target: T1, PLL (Photorhabdus laumondii subsp. laumondii, UniProt Q7N8J0); assay: Isothermal titration calorimetry (ITC); type: binding, Photorhabdus laumondii subsp. laumondii TT01
Method: (§1) ITC experiments were performed using an Auto-ITC200 calorimeter or Automated PEAQ-ITC calorimeter (both Malvern Panalytical, Malvern, UK). Measurements were carried out at 25 °C in the Tris buffer. Before the analyses, lectins were extensively dialyzed against the Tris buffer and the dialysate was used to dissolve ligands. The protein (0.1 mM or 0.2 mM) in the cell was titrated with 2 μL injections of the ligand (20 mM or 40 mM). […] Experiments for each interacting ligand were carried out in triplicates. Integrated heat effects were evaluated by nonlinear regression using a single-site binding model in Origin 7 (OriginLab, Northampton, USA) ([Wiseman et al. 1989]). Triplicate measurements were fitted simultaneously using a global fit approach. Due to the low affinity of the interaction, the binding stoichiometry was fixed during the fitting.

PLL5 [6] = target: T2, PLL5 (Photorhabdus laumondii subsp. laumondii, UniProt Q7N8I5); assay: Isothermal titration calorimetry (ITC); type: binding, Photorhabdus laumondii subsp. laumondii TT01; settings: for KD / Kd: ITC; for interaction with the sugar in ITC (in words): PLL5
Method: as §1

PLL4 [7] = target: T3, PLL4 (Photorhabdus laumondii subsp. laumondii, UniProt Q7N8I6); assay: Isothermal titration calorimetry (ITC); type: binding, Photorhabdus laumondii subsp. laumondii TT01; settings: for KD / Kd: ITC; for interaction with the sugar in ITC (in words): PLL4
Method: as §1

PLL [8] = target: T1, PLL; assay: SPR inhibition assay on the MGMR channel; parameters: species or system Photorhabdus laumondii subsp. laumondii TT01; settings: inhibition of PLL (250 nM) binding to immobilized MGMR
Method: (§2) SPR experiments were carried out on BIAcore T200 or BIAcore S200 instruments (GE Healthcare, UK). Sugar moieties were immobilized on the chip surface using the standard procedures according to the manufacturer’s instructions. Measurements with immobilized MGMR were performed on the chip prepared previously (high-density chip) ([Fujdiarová et al. 2021]). Measurements with immobilized α-L-fucose were performed on the streptavidin chip (GE Healthcare, UK). Biotinylated α-L-fucose was immobilized on channel 2 to yield a final response of 29 RU, unmodified channel 1 was used as a control.
(§3) Measurements were performed in Tris buffer with the addition of 0.05% Tween 20 at a flow rate of 30 μl/min at 25 °C. […] 50 mM NaOH for 30 s (flow 30 μl/min) was used for chip regeneration. To determine KDs (app) towards MGMR, 2-fold dilution series of lectins was used (PLL: 0.048 – 50 μM, PLL4: 0.008 - 2 μM; PLL5: 1.9 – 500 nM). The data were evaluated with the BIAcore T200 or BIAcore S200 evaluation software using a steady state approach. To determine KD(app) towards α-L-fucose, 2-fold dilution series of lectins was used (PLL: 1.25 – 20 μM, PLL4: 0.39 – 12.5 μM; PLL5: 0.12 – 30 μM). The data were evaluated with the BIAcore T200 or BIAcore S200 evaluation software using a steady state approach (PLL5) or a single-cycle kinetics approach (PLL, PLL4). For SPR inhibition experiments on the MGMR channel, 250 nM PLL, 250 nM PLL4 or 62 nM PLL5, respectively, was used. Proteins of the given concentration were mixed with a concentration series of tested inhibitors (0.01 - 0.4 M). Proteins without an inhibitor were used as a control. The response of the lectin bound to the sugar surface at equilibrium was plotted against the concentration of inhibitor in order to determine IC50. The response in the appropriate blank channel was subtracted prior to all evaluations.

PLL5 [9] = target: T2, PLL5; assay: SPR inhibition assay on the MGMR channel; parameters: species or system Photorhabdus laumondii subsp. laumondii TT01; settings: inhibition of PLL5 (62 nM) binding to immobilized MGMR
Method: as §2, §3

PLL4 [10] = target: T3, PLL4; assay: SPR inhibition assay on the MGMR channel; parameters: species or system Photorhabdus laumondii subsp. laumondii TT01; settings: inhibition of PLL4 (250 nM) binding to immobilized MGMR
Method: as §2, §3

PLL4 [11] = target: T3, PLL4; assay: Glycan microarray screening (634 saccharide ligands); type: binding, Photorhabdus laumondii subsp. laumondii TT01; settings: DyLight488-labelled PLL4, 200 μg/mL
Method: Lectins were fluorescently labelled with DyLight 488 according to the manufacturer’s instructions and the unbound dye was extensively dialyzed out of the protein solution. The microarray chip (Semiotik LLC, Moscow, Russia, batch OSPS280715) containing 634 saccharide ligands, each in 6 replicates, was treated with PBS (137 mM NaCl, 2.7 mM KCl, 8 mM Na2HPO4, […], pH 7.4) with added 0.1% Tween-20 for 15 min. The labelled proteins (200 μg/mL) were then separately applied to the chip surface and incubated in a humidity chamber at 37 °C for 1 h. After the incubation, the unbound protein was washed out with PBS containing 0.05% Tween-20 and deionized water. The chip was dried by airflow and scanned using an InnoScan1100 AL (Innopsys, Carbonne, France) with a 488 nm laser. The data were analyzed with the software Mapix 8.2.2 and an online glycan chip converter (Semiotic, https://rakitko.shinyapps.io/semiotik).

[12] = PLL3, stoichiometry N fixed to 2
[13] = PLL3, stoichiometry N fixed to 4
[14] = PLL3, stoichiometry N fixed to 6
[15] = PLL3, stoichiometry N fixed to 8
[16] = PLL2, stoichiometry N fixed to 2
[17] = PLL2, stoichiometry N fixed to 4
[18] = PLL2, stoichiometry N fixed to 6
[19] = PLL2, stoichiometry N fixed to 8
[20] = ITC, stoichiometry N fixed to 2
[21] = ITC, stoichiometry N fixed to 4
[22] = ITC, stoichiometry N fixed to 6
[23] = ITC, stoichiometry N fixed to 8
[24] = PLL5, stoichiometry N fixed to 2
[25] = PLL5, stoichiometry N fixed to 4
[26] = PLL5, stoichiometry N fixed to 6
[27] = PLL5, stoichiometry N fixed to 8
[28] = PLL4, stoichiometry N fixed to 2
[29] = PLL4, stoichiometry N fixed to 4
[30] = PLL4, stoichiometry N fixed to 6
[31] = PLL4, stoichiometry N fixed to 8

T1 sequence (Q7N8J0 entry or part of it): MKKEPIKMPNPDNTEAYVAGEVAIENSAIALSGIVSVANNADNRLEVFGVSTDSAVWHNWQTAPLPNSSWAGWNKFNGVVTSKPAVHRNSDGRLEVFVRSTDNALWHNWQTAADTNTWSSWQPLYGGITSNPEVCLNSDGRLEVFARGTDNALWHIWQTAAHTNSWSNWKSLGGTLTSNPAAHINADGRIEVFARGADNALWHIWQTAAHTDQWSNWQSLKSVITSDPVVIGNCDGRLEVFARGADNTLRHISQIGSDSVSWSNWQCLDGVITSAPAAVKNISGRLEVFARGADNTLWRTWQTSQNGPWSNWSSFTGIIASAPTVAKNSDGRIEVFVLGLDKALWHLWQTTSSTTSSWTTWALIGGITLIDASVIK
T3 sequence (Q7N8I6 entry or part of it): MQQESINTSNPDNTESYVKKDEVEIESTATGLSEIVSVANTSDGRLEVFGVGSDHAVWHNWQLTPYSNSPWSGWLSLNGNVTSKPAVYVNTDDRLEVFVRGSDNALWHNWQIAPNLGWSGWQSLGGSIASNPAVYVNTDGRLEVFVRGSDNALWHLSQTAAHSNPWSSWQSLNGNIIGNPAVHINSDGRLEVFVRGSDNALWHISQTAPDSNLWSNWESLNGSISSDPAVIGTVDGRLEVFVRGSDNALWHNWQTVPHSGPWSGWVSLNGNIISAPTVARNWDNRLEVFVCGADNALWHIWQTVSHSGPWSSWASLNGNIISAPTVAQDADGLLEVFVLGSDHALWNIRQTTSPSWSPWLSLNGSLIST
T2 sequence (Q7N8I5 entry or part of it): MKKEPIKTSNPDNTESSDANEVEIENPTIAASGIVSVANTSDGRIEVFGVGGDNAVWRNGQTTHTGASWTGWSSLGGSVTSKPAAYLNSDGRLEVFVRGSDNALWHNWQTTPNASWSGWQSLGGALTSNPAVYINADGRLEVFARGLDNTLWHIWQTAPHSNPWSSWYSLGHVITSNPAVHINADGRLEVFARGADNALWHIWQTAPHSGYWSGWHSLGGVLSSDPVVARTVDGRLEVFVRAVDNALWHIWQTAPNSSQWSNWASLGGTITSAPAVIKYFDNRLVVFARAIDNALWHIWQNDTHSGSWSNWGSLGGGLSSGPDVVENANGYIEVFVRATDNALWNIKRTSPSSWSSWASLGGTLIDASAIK

Compound: O=C[C@H](O)[C@@H](O)[C@@H](O)[C@H](O)CO [D-Gal, D-galactose]
- IC50 (PLL3 [1]): inhibited only the binding of PLL3
- Kd (PLL3 [2]; [12]): 3 ± 0.06 mM
- Kd (PLL3 [2]; [13]): 2.7 ± 0.14 mM
- Kd (PLL3 [2]; [14]): 2.5 ± 0.13 mM
- Kd (PLL3 [2]; [15]): 2.2 ± 0.06 mM
- interaction with the sugar in ITC (in words) (PLL3 [2]): interacted
- IC50 (PLL2 [3]): not PLL2
- IC50 (PLL2 [3]; read-out: IC50): > 100 mM
- Kd (PLL2 [4]; [16]): 0.5 ± 0.02 mM
- Kd (PLL2 [4]; [17]): 0.4 ± 0.03 mM
- Kd (PLL2 [4]; [18]): 0.3 ± 0.04 mM
- Kd (PLL2 [4]; [19]): 0.3 ± 0.06 mM
- interaction with the sugar in ITC (in words) (PLL2 [4]): interacted
- interaction with the sugar in ITC (in words) (PLL [5]): did not bind these sugars significantly
- KD (PLL [5]; [20]): No int
- KD (PLL [5]; [21]): No int
- KD (PLL [5]; [22]): No int
- KD (PLL [5]; [23]): No int
- KD (PLL5 [6]; [24]): No int
- KD (PLL5 [6]; [25]): No int
- KD (PLL5 [6]; [26]): No int
- KD (PLL5 [6]; [27]): No int
- interaction with the sugar in ITC (in words) (PLL5 [6]): did not bind these sugars significantly
- KD (PLL4 [7]; [28]): No int
- KD (PLL4 [7]; [29]): No int
- KD (PLL4 [7]; [30]): No int
- KD (PLL4 [7]; [31]): No int
- interaction with the sugar in ITC (in words) (PLL4 [7]): did not bind these sugars significantly

Compound: CO[C@@H]1O[C@@H](C)[C@@H](O)[C@@H](O)[C@@H]1O [αMeFuc, methyl-α-L-fucoside]
- IC50 (PLL3 [1]; read-out: IC50): 1 ± 0.05 mM
- IC50 (PLL [8]): 4 ± 1.35 mM
- IC50 (PLL5 [9]): 1.7 ± 0.13 mM
- IC50 (PLL4 [10]): 1.4 ± 0.04 mM
- Kd (PLL3 [2]; [13]): 0.7 ± 0.03 mM
- IC50 (PLL2 [3]; read-out: IC50): 0.1 ± 0.01 mM
- Kd (PLL2 [4]; [17]): 0.4 ± 0.02 mM
- Kd (PLL [5]; [20]): 3.6 ± 0.07 mM
- Kd (PLL5 [6]; [25]): 4.2 ± 0.17 mM
- Kd (PLL4 [7]; [29]): 4.9 ± 0.08 mM

Compound: CC(=O)N[C@@H]1[C@@H](O)[C@H](O[C@@H]2O[C@H](CO)[C@H](O)[C@H](O)[C@H]2O[C@@H]2O[C@H](C)[C@H](O)[C@H](O)[C@H]2O)[C@@H](CO)O[C@H]1O [D-Fucβ1-2-D-Galβ1-4-D-GlcNAcβ]
- glycan array binding (in words) (PLL4 [11]): recognized

Compound: C[C@H](O)[C@@H](O)[C@@H](O)[C@H](O)C=O [L-Fuc, L-fucose]
- IC50 (PLL3 [1]; read-out: IC50): 2.5 ± 0.09 mM
- IC50 (PLL [8]): 19.5 ± 7.5 mM
- IC50 (PLL5 [9]): 3.6 ± 0.13 mM
- IC50 (PLL4 [10]): 5.7 ± 0.21 mM
- Kd (PLL3 [2]; [12]): 3.6 ± 0.14 mM
- Kd (PLL3 [2]; [13]): 3.3 ± 0.12 mM
- Kd (PLL3 [2]; [14]): 3.1 ± 0.1 mM
- Kd (PLL3 [2]; [15]): 2.9 ± 0.1 mM
- IC50 (PLL2 [3]; read-out: IC50): 1.2 ± 0.04 mM
- Kd (PLL2 [4]; [16]): 2.8 ± 0.07 mM
- Kd (PLL2 [4]; [17]): 2.6 ± 0.08 mM
- Kd (PLL2 [4]; [18]): 2.4 ± 0.08 mM
- Kd (PLL2 [4]; [19]): 2.1 ± 0.1 mM
- KD (PLL [5]; [20]): No int
- KD (PLL [5]; [21]): No int
- KD (PLL [5]; [22]): No int
- KD (PLL [5]; [23]): No int
- Kd (PLL5 [6]; [24]): 16.6 ± 1.02 mM
- Kd (PLL5 [6]; [25]): 16 ± 1.01 mM
- Kd (PLL5 [6]; [26]): 15.4 ± 1 mM
- Kd (PLL5 [6]; [27]): 14.7 ± 0.99 mM
- Kd (PLL4 [7]; [28]): 31.2 ± 0.95 mM
- Kd (PLL4 [7]; [29]): 29.9 ± 0.9 mM
- Kd (PLL4 [7]; [30]): 28.6 ± 0.89 mM
- Kd (PLL4 [7]; [31]): 27.2 ± 0.86 mM

Compound: OC[C@H]1OC(O)[C@H](O)[C@@H](O)[C@@H]1O (stereo partly drawn) [D-Glc]
- Kd (PLL3 [2]; [12]): 4 ± 0.12 mM
- Kd (PLL3 [2]; [13]): 3.6 ± 0.08 mM
- Kd (PLL3 [2]; [14]): 3.3 ± 0.07 mM
- Kd (PLL3 [2]; [15]): 3.1 ± 0.11 mM
- interaction with the sugar in ITC (in words) (PLL3 [2]): interacted
- Kd (PLL2 [4]; [17]): 3.6 ± 0.21 mM
- interaction with the sugar in ITC (in words) (PLL2 [4]): interacted
- interaction with the sugar in ITC (in words) (PLL [5]): did not bind these sugars significantly
- KD (PLL [5]; [20]): No int
- KD (PLL [5]; [21]): No int
- KD (PLL [5]; [22]): No int
- KD (PLL [5]; [23]): No int
- KD (PLL5 [6]; [24]): No int
- KD (PLL5 [6]; [25]): No int
- KD (PLL5 [6]; [26]): No int
- KD (PLL5 [6]; [27]): No int
- interaction with the sugar in ITC (in words) (PLL5 [6]): did not bind these sugars significantly
- KD (PLL4 [7]; [28]): No int
- KD (PLL4 [7]; [29]): No int
- KD (PLL4 [7]; [30]): No int
- KD (PLL4 [7]; [31]): No int
- interaction with the sugar in ITC (in words) (PLL4 [7]): did not bind these sugars significantly

Compound: OC[C@H]1O[C@@H](O[C@H]2[C@H](O)[C@@H](O)C(O)O[C@@H]2CO)[C@H](O)[C@@H](O)[C@H]1O (mixture of isomers) [lactose]
- glycan array binding (in words) (PLL4 [11]): recognized
